Test results from patent US20160270405A1, “Synergistic Compositions Comprising a Bacillus Subtilis Strain and a Pesticide” (BASF CORPORATION, priority 2013, published 2016).

How the values were obtained:
[1] = tested on: corn; assay: Improvement of plant growth in corn: seed treatment, two week growth in seed germination pouches; type: in vivo; settings: pyraclostrobin 1 g a.i./100 kg seed and/or FB17 1 × 10^6 CFU per seed, two weeks growth
Method: (§1) Pyraclostrobin was applied to corn or wheat seeds as the commercial, liquid seed treatment formulation Stamina® (200 g per litre a.i., BASF Corporation, Research Triangle Park, North Carlolina), whereas Bacillus subtilis FB17 was applied to corn seeds as a SC formulation (about 2×10^10 CFU ml^−1).
Corn or wheat seeds were treated at the BASF Seed Solutions Technology Center (SSTC) in Ames, Iowa. Pyraclostrobin and Bacillus subtilis UD1022 were applied to maize seeds as water-based slurries by using methods consistent with commercial seed treatment applications in a laboratory-scale batch treater. Briefly, 500 g of corn seeds were added to the drum of a laboratory-scale batch treater and 6 ml of prepared slurry (with appropriate amount of pyraclostrobin, Bacillus subtilis FB17, or combination thereof) was applied to the seed as the drum rotated. For 500 g of wheat seeds, 8 ml of slurry was used. Seed was rotated in the drum for 30 seconds following application of the slurry to assure uniform and complete coverage to the seed surface.
Treated seeds were placed in seed germination pouches (Mega International, St. Paul, Minn.) and 20 ml of fertilizer solution that provided 50 ppm nitrogen, 7.5 ppm phosphorus, and 37.5 ppm potassium (derived from calcium nitrate, potassium nitrate, phosphoric acid and adjusted to pH 6.5) was added to each pouch. Seed germination pouches were placed in 25° C. growth chambers with a 16 h photoperiod. Five ml of fertilizer solution was added to seed germination pouches at two day intervals to replenish water lost to evapotranspiration.
Corn or wheat plants were allowed to grow for two weeks. At the conclusion of the two week growth period, plant height and shoot and root dry weights were determined. Plant height was measured in centimeters. Shoot and root tissues were separated and dried in an oven at 68° C. for three days. Shoot and root dry weights were measured in mg using an analytical balance.
(§2) Treatments were arranged in a completely randomized design with ten replications per treatment. Shoot height, shoot dry weight and root dry weight data were expressed as difference (%) relative to the not-treated control to facilitate application of Colby's formula (Colby, 1967) to calculate expected difference (EColby).
EColby=PA+PB−PA*PB/100 • EColby expected difference, expressed in % difference from the not-treated control, when using the mixture of the active compounds A and B at the concentrations a and b • PA difference, expressed as % difference from the not-treated control, when using the active compound A at the concentration a • PB difference, expressed in % difference from the not-treated control, when using the active compound B at the concentration b.

[2] = tested on: wheat; assay: Improvement of plant growth in wheat: seed treatment, two week growth in seed germination pouches; type: in vivo; settings: pyraclostrobin 1 g a.i./100 kg seed and/or FB17 1 × 10^6 CFU per seed, two weeks growth
Method: as §1
Corn or wheat seeds were treated at the BASF Seed Solutions Technology Center (SSTC) in Ames, Iowa. Pyraclostrobin and Bacillus subtilis UD1022 were applied to maize seeds as water-based slurries by using methods consistent with commercial seed treatment applications in a laboratory-scale batch treater. […]
Corn or wheat plants were allowed to grow for two weeks. At the conclusion of the two week growth period, plant height and shoot and root dry weights were determined. Plant height was measured in centimeters. […] Shoot and root dry weights were measured in mg using an analytical balance.
as §2, with “(EColby). […]” for “(EColby).”

COC(=O)N(OC)c1ccccc1COc1ccn(-c2ccc(Cl)cc2)n1 [Pyraclostrobin, pyraclostrobin]
Difference (shoot dry weight) relative to not-treated control [1]: 1.1% | Difference (shoot height) relative to not-treated control [1]: 3.5% | Shoot dry weight ([1]; dried at 68° C. for three days): 85.0 mg | Shoot height ([1]; mean of 10 measurements): 29.7 cm | Difference (root dry weight) relative to not-treated control [2]: 17.4% | Root dry weight ([2]; dried at 68° C. for three days): 10.1 mg
